In PubChem BioAssay (NCI):
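A five-concentration, 48-hour dose response in 96-well plates underlies each endpoint, interpolated linearly between surrounding concentrations. GI50 marks 50% less growth. Definition used: TGI = concentration required for complete inhibition of growth.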

Assays:
Assay in all cases: NCI anticancer screen, dose series, 48 h
SW-620 colon = test system: SW-620 colon
UO-31 renal = test system: UO-31 renal
SN12C renal = test system: SN12C renal
NCI/ADR-RES ovarian = test system: NCI/ADR-RES ovarian
MALME-3M melanoma = test system: MALME-3M melanoma
UACC-257 melanoma = test system: UACC-257 melanoma
A498 renal = test system: A498 renal
MDA-MB-231 breast = test system: MDA-MB-231 breast
SF-295 CNS = test system: SF-295 CNS
HOP-62 NSCLC = test system: HOP-62 NSCLC

Row | Structure (SMILES) | GI50 (SW-620 colon) | TGI (SW-620 colon) | GI50 (UO-31 renal) | TGI (UO-31 renal) | GI50 (SN12C renal) | TGI (SN12C renal) | GI50 (NCI/ADR-RES ovarian) | TGI (NCI/ADR-RES ovarian) | GI50 (MALME-3M melanoma) | TGI (MALME-3M melanoma) | GI50 (UACC-257 melanoma) | TGI (UACC-257 melanoma) | GI50 (A498 renal) | TGI (A498 renal) | GI50 (MDA-MB-231 breast) | TGI (MDA-MB-231 breast) | GI50 (SF-295 CNS) | TGI (SF-295 CNS) | GI50 (HOP-62 NSCLC) | TGI (HOP-62 NSCLC)
1 | COc1cc2c3c(n(C)c(=O)c2cc1OC)-c1cc2c(cc1/C3=C\CCN)OCO2 | < 0.01 µM | 1.62 µM | 0.337 µM | 8.9 µM | 0.583 µM | 17.6 µM | 0.272 µM | 2.56 µM | 0.239 µM | 2.07 µM | 1.03 µM | 16.9 µM | 11.4 µM | 27.7 µM | 1.36 µM | 4.78 µM | < 0.0239 µM | 8.84 µM | 0.067 µM | 5.8 µM
2 | O=C1OC(O)[C@@H]2[C@H]1[C@H]1CC[C@@H]2O1 (some centres undefined) | 52 µM | > 100 µM | 66.6 µM | > 100 µM | > 92.3 µM | > 100 µM | > 100 µM | > 100 µM | 28.1 µM | 77.3 µM | > 87 µM | > 100 µM | 7.07 µM | 51.9 µM | > 74.3 µM | > 100 µM | > 100 µM | > 100 µM | > 100 µM | > 100 µM
3 | Cn1cnc([N+](=O)[O-])c1S(=O)(=O)Oc1cccc2ccccc12 | 1.36 µM | 2.89 µM | 1.4 µM | 4.33 µM | 5.71 µM | 20.5 µM | 7.59 µM | 33 µM | 1.83 µM | 4.98 µM | 2.36 µM | 6.29 µM | 11.8 µM | 27.2 µM | 4.46 µM | 14 µM | 21.2 µM | > 65.3 µM | 2.56 µM | 5.45 µM
4 | CCN(CC)c1ccc(-c2cc(-c3cc(OC)c(OC)c(OC)c3)nc(N3CCOCC3)c2C#N)cc1 | 3.3 µM | > 100 µM | 2.99 µM | > 100 µM | 0.805 µM | > 100 µM | 0.709 µM | 27.8 µM | 2.28 µM | > 29.9 µM | 2.57 µM | > 100 µM | 2.88 µM | 39.5 µM | 0.519 µM | > 20.8 µM | 0.809 µM | 3.98 µM | 2.24 µM | 16.5 µM
5 | Cc1ccc(S(=O)(=O)N/N=C/C2(c3ccccc3)c3ccccc3-c3ccccc32)cc1 | – | 31 µM | – | 18.6 µM | – | 23.9 µM | – | 24.6 µM | – | 19.2 µM | – | 31.4 µM | – | 33 µM | – | 20.8 µM | – | 16.1 µM | – | 32.1 µM
6 | C=C1C(=O)O[C@H]2[C@H]1CC/C(COC(=O)c1c[nH]c3ccccc13)=C\CC[C@@]1(C)O[C@@H]21 | 0.234 µM | 0.752 µM | 0.165 µM | 0.313 µM | 0.237 µM | 0.623 µM | 0.397 µM | 11 µM | 0.324 µM | 1.27 µM | 0.368 µM | 1.49 µM | 0.267 µM | 1.03 µM | 0.197 µM | 0.447 µM | 1.94 µM | 4.47 µM | 0.825 µM | 2.41 µM
7 | COc1cc(OC)cc(-c2cc(=O)c3c(OC)c(OC)c(OC)c(OC)c3o2)c1 | – | > 100 µM | – | > 100 µM | – | > 100 µM | – | > 100 µM | – | > 100 µM | – | > 100 µM | – | 89.6 µM | – | > 100 µM | – | 69.8 µM | – | > 100 µM
8 | OC(c1nc2ccccc2[nH]1)C(O)C(O)C(O)c1nc2ccccc2[nH]1 (centres undefined) | – | > 100 µM | – | > 100 µM | – | > 100 µM | – | > 100 µM | – | > 100 µM | – | > 100 µM | – | > 100 µM | – | > 100 µM | – | > 100 µM | – | > 100 µM
9 | CN(C(=O)c1ccc(C(F)(F)F)cc1)c1ccc(Oc2ccc3c(c2)cc(C(=O)N2CCN(Cc4ccc(OC(F)F)cc4)CC2)n3C)nc1 | 98.2 µM | > 100 µM | 4.22 µM | > 100 µM | > 100 µM | > 100 µM | 0.437 µM | > 100 µM | > 34.9 µM | > 100 µM | 0.138 µM | > 100 µM | 0.729 µM | > 100 µM | > 80.2 µM | > 100 µM | < 0.01 µM | > 100 µM | – | > 100 µM
10 | Cc1cc(/C=C/c2ccc3cc(N(C)C)ccc3[n+]2C)c(C)n1-c1ccccc1 | 0.174 µM | 7.79 µM | 0.748 µM | 4.3 µM | 0.159 µM | 0.636 µM | 1.67 µM | 13.4 µM | 0.42 µM | 1.46 µM | 0.184 µM | 0.951 µM | 0.286 µM | 2.23 µM | 0.193 µM | 1.09 µM | 0.11 µM | 0.409 µM | 0.191 µM | 1.03 µM
11 | O=c1c2sccc2n(CC2COc3ccccc3O2)c(=O)n1O (centres undefined) | 3.76 µM | > 100 µM | 16 µM | 97.5 µM | 11.1 µM | > 100 µM | 23 µM | > 100 µM | 20 µM | 81.5 µM | 22.4 µM | > 100 µM | 13.3 µM | 38.1 µM | 39 µM | > 100 µM | 9.51 µM | > 100 µM | 8.41 µM | > 100 µM
